# Data from article PMC8508710, “Biochemical Characterization of 13-Lipoxygenases of Arabidopsis thaliana” (International Journal of Molecular Sciences, 2021).
# Like-named read-outs stand apart in the source and are kept apart here.
# How the values were obtained:
# AOS = tested on: AOS; set-up: method as in PMID 12223729; conditions: cited from earlier work
# LOX3 [1] = target: T1, LOX3 (Arabidopsis thaliana, UniProt Q9LNR3); assay: LOX3 activity, oxygen electrode (polarography); type: biochemical; set-up: made in house; host or cells: E. coli Nico21(DE3), pET15b; conditions: enzyme incubated with 280 µM chemical (1/10 vol of 2.8 mM), injected into 30 µM LeA, 50 mM Tris-HCl pH 7.2; vs solvent control; read-out: Polarography Relative Activity (%) LOX3
# T1 sequence (Q9LNR3 71-919): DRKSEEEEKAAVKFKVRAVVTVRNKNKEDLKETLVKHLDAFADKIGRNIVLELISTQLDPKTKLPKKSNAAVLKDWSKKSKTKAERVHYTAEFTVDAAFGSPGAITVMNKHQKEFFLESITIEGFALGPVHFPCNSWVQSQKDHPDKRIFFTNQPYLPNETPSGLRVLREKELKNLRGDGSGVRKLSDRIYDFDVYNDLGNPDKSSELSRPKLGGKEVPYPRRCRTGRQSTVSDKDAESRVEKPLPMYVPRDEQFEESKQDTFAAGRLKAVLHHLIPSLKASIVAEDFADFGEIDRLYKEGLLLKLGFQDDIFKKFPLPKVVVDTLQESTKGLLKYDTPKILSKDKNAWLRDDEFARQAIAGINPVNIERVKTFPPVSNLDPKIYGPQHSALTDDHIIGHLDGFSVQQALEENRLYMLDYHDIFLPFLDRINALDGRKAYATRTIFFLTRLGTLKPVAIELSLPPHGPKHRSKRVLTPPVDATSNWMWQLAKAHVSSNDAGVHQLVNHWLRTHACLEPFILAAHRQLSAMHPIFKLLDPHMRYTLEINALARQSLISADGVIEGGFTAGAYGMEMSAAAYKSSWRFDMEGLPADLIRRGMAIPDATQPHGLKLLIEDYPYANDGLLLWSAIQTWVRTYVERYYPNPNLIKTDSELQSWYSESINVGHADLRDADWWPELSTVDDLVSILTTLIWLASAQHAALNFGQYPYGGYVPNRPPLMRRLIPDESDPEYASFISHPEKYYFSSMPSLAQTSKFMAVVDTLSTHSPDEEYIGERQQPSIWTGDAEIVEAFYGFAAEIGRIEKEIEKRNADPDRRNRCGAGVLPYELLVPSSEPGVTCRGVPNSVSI
# LOX2 = target: T2, LOX2 (Arabidopsis thaliana, UniProt P38418); assay: LOX2 activity, spectrophotometric (conjugated diene formation at 234 nm); conditions: for Mode of inhibition: Lineweaver–Burk plot, 12-OPDA tested at 226 µM; for Photometry Relative activity (%) LOX2: enzyme 0.225 µg/µL incubated 10 min 30 °C with 280 µM chemical, 4.8 µM LeA, 50 mM Tris-HCl pH 7.2, vs solvent control; for Relative Activity (%) LOX2: E. coli lysate in 50 mM TRIS pH 8.0 diluted 1:10, 50 mM HEPES pH 8.0 + 1 mM metal salt, LeA, 234 nm; for LOX2 activity in presence of Cd2+: 9 µM LeA, 20 mM HEPES pH 8.0, control 0.8 ± 0.2
# T2 sequence (P38418 71-896): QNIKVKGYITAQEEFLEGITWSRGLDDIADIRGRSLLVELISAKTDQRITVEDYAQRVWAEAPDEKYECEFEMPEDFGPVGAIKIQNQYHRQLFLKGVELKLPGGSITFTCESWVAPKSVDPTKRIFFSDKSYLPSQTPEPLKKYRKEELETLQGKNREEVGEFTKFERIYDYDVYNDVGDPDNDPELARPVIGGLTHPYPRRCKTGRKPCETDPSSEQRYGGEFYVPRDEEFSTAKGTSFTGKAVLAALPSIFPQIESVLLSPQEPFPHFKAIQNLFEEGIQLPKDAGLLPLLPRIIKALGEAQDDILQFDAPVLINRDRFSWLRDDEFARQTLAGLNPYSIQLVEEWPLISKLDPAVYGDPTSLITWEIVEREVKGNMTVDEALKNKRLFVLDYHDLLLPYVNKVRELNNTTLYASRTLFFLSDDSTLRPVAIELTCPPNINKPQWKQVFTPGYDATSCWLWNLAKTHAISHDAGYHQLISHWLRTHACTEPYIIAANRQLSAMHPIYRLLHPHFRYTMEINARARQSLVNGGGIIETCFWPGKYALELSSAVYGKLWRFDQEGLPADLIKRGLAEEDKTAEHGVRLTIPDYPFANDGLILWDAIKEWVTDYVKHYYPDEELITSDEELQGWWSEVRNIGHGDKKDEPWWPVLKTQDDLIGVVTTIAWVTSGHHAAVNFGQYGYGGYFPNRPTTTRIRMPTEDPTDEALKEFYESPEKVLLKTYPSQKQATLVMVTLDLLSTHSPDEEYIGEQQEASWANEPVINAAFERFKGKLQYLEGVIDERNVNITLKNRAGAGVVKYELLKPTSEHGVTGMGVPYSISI
# LOX4 = target: T3, LOX4 (Arabidopsis thaliana, UniProt Q9FNX8); assay: LOX4 activity, spectrophotometric (conjugated diene formation at 234 nm); conditions: for Photometry Relative activity (%) LOX4: enzyme 0.225 µg/µL incubated 10 min 30 °C with 280 µM chemical, 4.8 µM LeA, 50 mM Tris-HCl pH 7.2, vs solvent control; for Relative Activity (%) LOX4: E. coli lysate in 50 mM TRIS pH 8.0 diluted 1:10, 50 mM HEPES pH 8.0 + 1 mM metal salt, LeA, 234 nm
# T3 sequence (Q9FNX8 71-926): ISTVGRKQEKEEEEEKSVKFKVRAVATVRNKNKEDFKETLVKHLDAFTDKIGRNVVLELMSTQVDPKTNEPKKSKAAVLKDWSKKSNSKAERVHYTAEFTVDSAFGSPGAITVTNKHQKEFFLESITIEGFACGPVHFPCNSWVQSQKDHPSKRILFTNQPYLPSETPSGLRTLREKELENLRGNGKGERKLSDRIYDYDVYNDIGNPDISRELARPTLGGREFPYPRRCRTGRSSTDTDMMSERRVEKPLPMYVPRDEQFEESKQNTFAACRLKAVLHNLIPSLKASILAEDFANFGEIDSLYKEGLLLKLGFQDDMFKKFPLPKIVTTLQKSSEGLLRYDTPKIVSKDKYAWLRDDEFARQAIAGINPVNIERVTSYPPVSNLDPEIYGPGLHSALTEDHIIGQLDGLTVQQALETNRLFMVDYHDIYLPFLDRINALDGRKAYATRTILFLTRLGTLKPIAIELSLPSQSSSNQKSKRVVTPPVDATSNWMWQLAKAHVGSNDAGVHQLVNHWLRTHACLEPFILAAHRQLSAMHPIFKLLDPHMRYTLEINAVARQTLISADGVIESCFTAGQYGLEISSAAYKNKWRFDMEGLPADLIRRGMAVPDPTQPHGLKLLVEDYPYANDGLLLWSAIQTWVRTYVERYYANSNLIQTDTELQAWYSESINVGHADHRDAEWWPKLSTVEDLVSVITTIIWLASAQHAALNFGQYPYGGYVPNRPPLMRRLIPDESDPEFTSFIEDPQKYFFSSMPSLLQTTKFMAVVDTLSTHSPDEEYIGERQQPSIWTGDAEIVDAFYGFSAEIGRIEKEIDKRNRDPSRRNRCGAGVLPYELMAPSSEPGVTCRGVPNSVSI
# LOX3 [2] = target: T1, LOX3; assay: LOX3 activity, oxygen electrode (polarography); type: biochemical; set-up: made in house; host or cells: E. coli Nico21(DE3), pET15b; conditions: for Relative Activity (%) LOX3: 1 mM metal salt, LeA 30 µM in 20 mM HEPES pH 8.0, oxygen consumption vs control without metal
compound,measurement,setting,value
"CCC=CCC1C(=O)C=CC1CCCCCCCC(=O)O (stereo not drawn) [12-OPDA, cis-(+)-12-oxophytodienoic acid]",Sensitivity of AOS,AOS; 0.5 mM,insensitivity
same,activity at 280 µM,LOX3 [1],60 ± 5%
same,IC50,LOX2,280 to 338 µM
same,Mode of inhibition,LOX2,non-competitive
same,Photometry Relative activity (%) LOX2,LOX2,49 ± 10%
same,IC50,LOX4,48 µM
same,Ki,LOX4,10 µM
same,Mode of inhibition,LOX4; Lineweaver–Burk and Dixon plots,non-competitive or mixed
same,Photometry Relative activity (%) LOX4,LOX4,6 ± 4%
[Cl-].[Cl-].[Mg+2] [MgCl2],Sensitivity of AOS,AOS; 1.0 mM,insensitivity
same,Increase of LOX3 activity in comparison to control,"LOX3 [2]; 1 mM cation, LeA 30 µM, pH 8.0",35%
same,Relative Activity (%) LOX3,LOX3 [2],135 ± 4%
same,Relative Activity (%) LOX2,LOX2,188±28%
same,Relative Activity (%) LOX4,LOX4,107±2%
[Ca+2].[Cl-].[Cl-] [CaCl2],Sensitivity of AOS,AOS; 1.0 mM,insensitivity
same,Relative Activity (%) LOX3,LOX3 [2],117 ± 10%
same,Relative Activity (%) LOX2,LOX2,550±40%
same,Relative Activity (%) LOX4,LOX4,85±6%
"CC/C=C\CC1C(=O)CCC1CC(=O)OC (stereo not shown) [MJ, methyl jasmonate]",activity at 280 µM,LOX3 [1],85 ± 5%
same,Mode of inhibition,LOX2,competitive
same,Photometry Relative activity (%) LOX2,LOX2,62 ± 10%
O=S(=O)([O-])[O-].[Cd+2] [CdSO4],Relative Activity (%) LOX3,LOX3 [2],no activity
same,LOX2 activity in presence of Cd2+,"LOX2; 40 µM Cd2+, listed as Cd2+",2.3 ± 0.3 nmol/s/mg
same,LOX2 activity in presence of Cd2+,"LOX2; 40 µM Cd2+, listed as Cd^2+",2.3 ± 0.3 nmol/s/mg
same,LOX2 activity in presence of Cd2+,"LOX2; 150 µM Cd2+, listed as Cd2+",5.2 ± 0.9 nmol/s/mg
same,LOX2 activity in presence of Cd2+,"LOX2; 150 µM Cd2+, listed as Cd^2+",5.2 ± 0.9 nmol/s/mg
same,LOX2 activity in presence of Cd2+,"LOX2; 1180 µM Cd2+, listed as Cd2+",5.7 ± 0.7 nmol/s/mg
same,LOX2 activity in presence of Cd2+,"LOX2; 1180 µM Cd2+, listed as Cd^2+",5.7 ± 0.7 nmol/s/mg
same,Relative Activity (%) LOX2,LOX2,950±240%
same,Relative Activity (%) LOX4,LOX4,40±6%
"O=C(O)/C=C/CCCCCCCCC(=O)O [TA, traumatic acid]",activity at 280 µM,LOX3 [1],100 ± 5%
same,Photometry Relative activity (%) LOX2,LOX2,105 ± 5%
same,Photometry Relative activity (%) LOX4,LOX4,106 ± 4%
"O=C(O)c1ccccc1O [SA, salicylic acid]",activity at 280 µM,LOX3 [1],101 ± 5%
